We go through nine molecules from US20130197016A1, “DOSING REGIMES FOR THE TREATMENT OF OCULAR VASCULAR DISEASE” (priority 2010, published 2013).

In series [1] the test system is laser-induced choroidal neovascularization (CNV) area. The series is described as follows: Rat laser-induced choroidal neovascularization (CNV) model; daily administration (Example 1). Particulars: 264 h, read-out: Efficacy Daily % (Ex. 1); for inhibition in vivo at 1 mg/kg: 1 mg/kg oral daily to day 11 or 12, formulation A; for inhibition in vivo at 0.3 mg/kg: 0.3 mg/kg oral daily to day 11 or 12, formulation A. The format is in vivo, Brown Norway rats. The protocol: Three month old Brown Norway rats were administered with placebo or active agent of Table 1 at the dosing concentration and formulation specified in Table 2 infra about one hour prior to laser application. The rat eyes were dilated with one drop of phenylephrine and cyclopentolate (Altaire Pharmaceuticals inc. Aqueboque, N.Y. and Akorn Inc. Lake Forest, Ill.) and then immobilized. Each eye was administered four laser burns 2-3 disc diameters from the optic nerve with an Oculight GLx 532 nm laser (Iridex). Each study group had 10 rats, 20 eyes and 80 data points.
After laser insult, the rats were administered placebo or the compounds of Table 1 at the dosing concentration and formulation specified in Table 2 daily from day 1 to day 11 or 12. Immediately before harvesting the eyes, rodents were injected i.v. with a 2,000 kd fluorescein isothiocyanate (FITC) dextran vascular label. Tissues were harvested about 24 hours after the last dose was administered.
Eyes were fixed with 4% paraformaldehyde and the retinal pigment epithelium(RPE)/choroid/sclera complexes dissected and placed onto microscope slides. Fluorescent images of each CNV lesion were captured and lesion areas were quantified on masked data using Axiovision software (Version 4.5 Zeiss). Inter-group differences were analyzed by one-way analysis of variance (ANOVA) with a Neuman-Keuls post hoc analysis (Prism v. 4.02 by GraphPad Software, Inc. La Jolla Calif.). Efficacy is defined herein to mean the percentage reduction in CNV area after treatment compared to placebo.
Each group consisted of 10 rats, 4 laser burns/eye, and 80 data points/group. Assay length was 11 or 12 days after laser (1 mg/kg n=2, 3 mg/kg n=5, 10 mg/kg n=7, 30 mg/kg n=1).

The test system is the same in series [2]. The series is described as follows: Rat laser-induced CNV model; weekly administration (Example 3). The format is in vivo, Brown Norway rats. The settings on record: for inhibition in vivo at 1 mg/kg: 1 mg/kg weekly (before laser, day 6 and 13); for Efficacy in a weekly dosing regimen: weekly dosing at doses of Table 2, compared to daily; for inhibition in vivo at 0.3 mg/kg: 0.3 mg/kg weekly (before laser, day 6 and 13); for inhibition in vivo at 3 mg/kg: 3 mg/kg weekly (before laser, day 6 and 13), formulation A (B for Compound 9). The protocol:
After laser insults, the rats were administered the compounds of Table 1 formulated as specified in Table 2 or placebo on day 6 and 13.

Series [3] can be described thus: Ocular PK in Brown Norway rats following a single oral dose (Example 5). The format is in vivo. Particulars: for Kp / AUC(0-t): Brown Norway, rat; for Kp: retina/plasma, po; for AUC(0-t): sampling 6-144 hrs; for Concentration over time in posterior eye cup and retina (words, FIG. 3-6): single oral dose per Table 3 (Compound 1 30 mg/kg, Compound 2 10 mg/kg, Compound 9 10 mg/kg). The protocol:
Three month old Brown Norway rats were administered orally with active agent of Table 1 at the dosing concentration and formulation specified in Table 3 infra. […] The ocular tissues collected were the retina and the posterior eye cup.
Ocular tissues were homogenized and plasma proteins precipitated and drug concentration was analyzed by LC-MS/MS.

For series [4], the system named is neovascular adult macular degeneration (AMD). Particulars: oral, alone or with intravitreal bevacizumab, daily or thrice weekly, three patients; cited from earlier work.
The mark [5] stands for this setting: percent reduction in CNV area vs vehicle control.
Where [6] appears, read: Rattus norvegicus, 144 h, formulation A, percent reduction in CNV area vs vehicle control, read-out: Efficacy Weekly % (Ex. 3).
The mark [7] stands for this setting: 3 mg/kg oral daily to day 11 or 12, formulation A (B for Compound 9), percent reduction in CNV area vs vehicle control.
Where [8] appears, read: Rattus norvegicus, 144 h, percent reduction in CNV area vs vehicle control, read-out: Efficacy Weekly % (Ex. 3).

Molecules are shown by their SMILES. Entries after “also recorded” stand apart in the source; their conditions may differ. Read-outs that look alike come from different tables or passages of the source.

Broadly, the Kp is tissue or fluid exposure divided by exposure in the circulation. Take `Cc1ccc(Nc2nccc(N(C)c3ccc4c(C)n(C)nc4c3)n2)cc1S(N)(=O)=O` [Compound 1, 5-[[4-[(2,3-Dimethyl-2H-indazol-6-yl)methylamino]-2-pyrimidinyl]amino]-2-methylbenzolsulfonamide]: the inhibition in vivo at 30 mg/kg stood at 42% in series [1] (30 mg/kg oral daily to day 11 or 12, formulation A, percent reduction in CNV area vs vehicle control); 50% in series [2] (Rattus norvegicus, 144 h, 30 mg/kg weekly (before laser, day 6 and 13), formulation A, percent reduction in CNV area vs vehicle control, read-out: Efficacy Weekly % (Ex. 3)). In series [3] (30 mg/kg), this molecule had a Kp of 0.2. The AUC(0-t) in series [3] (single oral dose 30 mg/kg, plasma, read-out: AUC(last) Plasma) amounted to 583 µM·h; in series [3] (single oral dose 30 mg/kg, posterior eye cup, read-out: AUC(last) PEC) it was 6820 µM·h; in series [3] (single oral dose 30 mg/kg, retina, read-out: AUC(last) Retina) it was 132 µM·h. For the same molecule, the “Plasma exposure over time (words, FIG. 3-4)” value in series [3] (single oral dose per Table 3 (Compound 1 30 mg/kg, Compound 2 10 mg/kg)) is “increased plasma exposure throughout the duration of the week after administration”. Besides, the “Concentration over time in posterior eye cup and retina (words, FIG. 3-6)” value in series [3] is listed as “sustained ocular exposure in the posterior eye cup tissues for at least a week”.

Turning to `Nc1cc(Oc2ccc3c(C(=O)Nc4cccc(C(F)(F)F)c4)cccc3c2)ncn1` [Compound 3, 6-(6-Amino-pyrimidin-4-yloxy)-naphthalene-1-carboxylic acid (3-trifluoromethyl-phenyl)-amide], the inhibition in vivo at 1 mg/kg was 63% in series [1] (setting [5]) and 57% in series [2] (setting [6]). Further, the “Efficacy in a weekly dosing regimen” value in series [2] is “greatest level of efficacy”.

On to `CC(=O)N1Cc2ncnc(Oc3ccc4c(ccn4C(=O)Nc4cc(C5CC5)on4)c3)c2C[C@@H]1C` [Compound 4, (−)-5-((S)-7-Acetyl-6-methyl-5,6,7,8-tetrahydro-pyrido[3,4-d]pyrimidin-4-yloxy)-indole-1-carboxylic acid (5-cyclopropyl-isoxazol-3-yl)-amide], for which the values for the inhibition in vivo at 0.3 mg/kg in series [1] (setting [5]) and in series [2] (setting [6]) were 96% and 50%, respectively.

As for `CC1(c2cc(NC(=O)n3ccc4cc(Oc5ncnc6c5CCNC6)ccc43)[nH]n2)CC1` [Compound 5, 5-(5,6,7,8-Tetrahydro-pyrido[3,4-d]pyrimidin-4-yloxy)-indole-1-carboxylic acid [5-(1-methyl-cyclopropyl)-2H-pyrazol-3-yl]-amide], the inhibition in vivo at 10 mg/kg came to 85% in series [1] (10 mg/kg oral daily to day 11 or 12, formulation A, percent reduction in CNV area vs vehicle control); 50% in series [2] (Rattus norvegicus, 144 h, 10 mg/kg weekly (before laser, day 6 and 13), formulation A, percent reduction in CNV area vs vehicle control, read-out: Efficacy Weekly % (Ex. 3)).

For the molecule `COc1cc2nccc(Oc3ccc(NC(=O)Nc4cc(C)on4)c(Cl)c3)c2cc1OC` [Compound 6, 1-(2-chloro-4-((6,7-dimethoxyquinolin-4-yl)oxy)phenyl)-3-(5-methylisoxazol-3-yl)urea], the inhibition in vivo at 0.3 mg/kg in series [1] (setting [5]) is 79%; in series [2] (setting [6]) it was 40%. Besides, the inhibition in vivo at 1 mg/kg came out at 96% in series [1] (setting [5]) and 90% in series [2] (setting [6]). Also, the “Loss of efficacy in weekly dosing compared to daily dosing” value in series [2] (0.3 mg/kg) is listed as 39%. For the same molecule, in series [2], the “Efficacy in a weekly dosing regimen” value was “greatest level of efficacy”. The molecule also came in with a partition ratio (Kp) in series [3] (0.3 mg/kg) of 0.6. The AUC(0-t) was found to be 1.2 µM·h in series [3] (single oral dose 0.3 mg/kg, plasma, read-out: AUC(last) Plasma); 83.5 µM·h in series [3] (single oral dose 0.3 mg/kg, posterior eye cup, read-out: AUC(last) PEC); 2.47 µM·h in series [3] (single oral dose 0.3 mg/kg, retina, read-out: AUC(last) Retina). For the same molecule, the “Retinal to plasma exposure ratio, comparison among compounds” value in series [3] (single oral dose per Table 3 (Compound 2 10 mg/kg, Compound 6 0.3 mg/kg)) is listed as “lower retinal to plasma exposure ratio than Compound 2”.

Take `O=C(Nc1cccc(C(F)(F)F)c1)c1cccc2cc(Oc3cc(CO)ncn3)ccc12` [Compound 7, 6-(6-Hydroxymethyl-pyrimidin-4-yloxy)-naphthalene-1-carboxylic acid (3-trifluoromethyl-phenyl)-amide]: the inhibition in vivo at 3 mg/kg in series [1] (setting [7]) came out at 96%; in series [2] (setting [8]), 46%.

For `O=C(Nc1cc(C2CC2)on1)n1ccc2cc(Oc3ncnc4c3CNC4)ccc21` [Compound 8, 5-(6,7-dihydro-5H-pyrrolo[3,4-d]pyrimidin-4-yloxy)-indole-1-carboxylic acid (5-cyclopropyl-isoxazol-3-yl)-amide], the inhibition in vivo at 3 mg/kg in series [1] (setting [7]) came out at 88%; in series [2] (setting [8]), 26%. Moreover, in series [2], the “Efficacy in a weekly dosing regimen” value is given as “least efficacy”.

For `CNC(=O)c1cc(Oc2ccc(NC(=O)Nc3ccc(Cl)c(C(F)(F)F)c3)cc2)ccn1` [Compound 9, 4-[4-[[4-chloro-3-(trifluoromethyl)phenyl]carbamoylamino]phenoxy]-N-methyl-pyridine-2-carboxamide], the inhibition in vivo at 3 mg/kg in series [1] (po) was 90%; in series [2] (setting [8]), 26%. For the same molecule, the “Efficacy in a weekly dosing regimen” value in series [2] was “least efficacy; also recorded: absence of efficacy”. The molecule also displayed a Kp in series [3] (10 mg/kg) of 2.1. In addition, the AUC(0-t) came to 151 µM·h in series [3] (single oral dose 10 mg/kg, plasma, read-out: AUC(last) Plasma); 82 µM·h in series [3] (single oral dose 10 mg/kg, posterior eye cup, read-out: AUC(last) PEC); 95.1 µM·h in series [3] (single oral dose 10 mg/kg, retina, read-out: AUC(last) Retina). Moreover, the “Concentration over time in posterior eye cup and retina (words, FIG. 3-6)” value in series [3] is recorded as “substantially similar at each sampling time point”. Moreover, the “Benefit in neovascular AMD patients” value in series [4] is “uncertain benefit”.

Turning to `CNCc1cc(Oc2ccc3c(ccn3C(=O)Nc3cc(C(F)(F)F)n(C)n3)c2)ncn1` [Compound 10, 5-(6-Methylaminomethyl-pyrimidin-4-yloxy)-indole-1-carboxylic acid (1-methyl-5-trifluoromethyl-1H-pyrazol-3-yl)-amide], the inhibition in vivo at 1 mg/kg was found to be 88% in series [1] (setting [5]) and 23% in series [2] (setting [6]). Also, in series [2], the “Efficacy in a weekly dosing regimen” value is “least efficacy”.
